{"source": "patent US20100162416A1", "about": "“Multi-stage stem cell carcinogenesis” (StemLifeLine, Inc., priority 2008, published 2010)", "format_in_all_cases": "cell-based, human", "key": {"[1]": {"tested_on": "selected clones (05, 07, 11) and parental hESC", "experiment": "Drug resistance profile: proliferation rate by BrdU incorporation in the presence of chemotherapeutic reagents", "method": "Drug resistance profiles of selected clones were determined for the common classes of chemotherapeutic reagents. Proliferation rate of the clones and parental hESC was measured in the presence of multiple concentrations of 10 different drugs using BrdU incorporation assay. Each drug has been tested in at least three independent experiments, each condition being done in triplicate. The approximate half maximal inhibitory concentration (IC50) was determined for each of the drugs tested. IC50 represents the concentration of a drug that is required for 50% inhibition in vitro.\nResponse of the selected clones to the following chemotherapeutic reagents was examined. The chemotherapeutic agents were chosen for their wide-spread use and variety with respect to their modes of action: 5-fluorouracil (5-FU), doxorubicin (Doxo), irinotecan (SN-38), taxol, etoposide (VP-16), carmustine (BCNU), methotrexate (MTX), cytarabine (AraC), temozolomide (MTIC) and chlorambucil (CLB). […] Proliferation rate was measured by BrdU incorporation at the end of the drug treatment. All samples were made in triplicates in each of the three independent experiments performed."}, "[2]": {"tested_on": "clones 07-B1 and 11-B19", "experiment": "Drug resistance of BCNU-selected high-resistance clones", "details": "clones selected by increasing concentrations of BCNU; data not shown", "method": "Two clones, 07 and 11 were exposed to increasing concentrations of BCNU. The surviving cells were cloned and a number of high-resistance clones two of which, 07-B1 and 11-B19 were isolated. Their drug resistance to BCNU and MTIC was tested."}, "[3]": {"tested_on": "isogenic cloned cell lines derived from one hESC line", "experiment": "Resistance of the panel of isogenic cloned cell lines to common chemotherapeutic agents", "details": "panel of isogenic cloned cell lines with CSC phenotype", "text": "Using one hESC line, a panel of isogenic cloned cell lines has already been generated and banked. […] High resolution karyotype (G-banding), proliferation rate (BrdU incorporation and doubling time), growth factor dependence and expression of CSC/SC markers such as Oct-4, Nanog, CD133, ABCG2, ABCG5 etc) have been examined and the stability of the expressed phenotypes was confirmed."}, "[4]": {"tested_on": "clones 05, 07, 11, isogenic hESC control and isogenic cancer lines TMEC02, TMEC03", "experiment": "Salinomycin dose response measured by BrdU incorporation", "details": "clones 05 and 07 compared with clone 11, isogenic hESC control"}}, "note": "“Also recorded” adds a separate entry of the source.", "data": [{"molecule": "O=c1[nH]cc(F)c(=O)[nH]1", "note": "[5-FU, 5-fluorouracil]", "values": [{"measurement": "resistance of clone 07", "setting": "[1]; clone 07 compared with clone MEC-11", "result": "more resistant"}]}, {"molecule": "O=NN(CCCl)C(=O)NCCCl", "note": "[BCNU, carmustine]", "values": [{"measurement": "resistance of clones 07-B1 and 11-B19 relative to parental clones", "setting": "[2]", "result": "higher resistance than the parental clones"}, {"measurement": "resistance of transformed cell lines to the agent", "setting": "[3]", "result": "increased resistance"}]}, {"molecule": "COc1cccc2c1C(=O)c1c(O)c3c(c(O)c1C2=O)C[C@@](O)(C(=O)CO)C[C@@H]3O[C@H]1C[C@H](N)[C@H](O)[C@H](C)O1", "note": "[doxorubicin]", "values": [{"measurement": "resistance of transformed cell lines to the agent", "setting": "[3]", "result": "increased resistance"}]}, {"molecule": "CO[C@@]12[C@H](COC(N)=O)C3=C(C(=O)C(C)=C(N)C3=O)N1C[C@@H]1N[C@@H]12", "note": "[mitomycin C]", "values": [{"measurement": "effect on proliferation (positive control)", "setting": "[1]; all cell lines, BrdU incorporation at end of drug treatment", "result": "induced growth arrest in all cell lines"}]}, {"molecule": "CC(=O)O[C@H]1C(=O)[C@@]2(C)[C@H]([C@H](OC(=O)c3ccccc3)[C@]3(O)C[C@H](OC(=O)[C@H](O)[C@@H](NC(=O)c4ccccc4)c4ccccc4)C(C)=C1C3(C)C)[C@]1(OC(C)=O)CO[C@@H]1C[C@@H]2O", "note": "[paclitaxel]", "values": [{"measurement": "resistance of transformed cell lines to the agent", "setting": "[3]", "result": "increased resistance"}]}, {"molecule": "CC[C@@H](C(=O)[C@@H](C)[C@@H](O)[C@H](C)[C@@H]1O[C@@H]([C@@H](CC)C(=O)O)CC[C@@H]1C)[C@H]1O[C@]2(C=C[C@@H](O)[C@]3(CC[C@@](C)([C@H]4CC[C@](O)(CC)[C@H](C)O4)O3)O2)[C@H](C)C[C@@H]1C", "note": "[salinomycin]", "values": [{"measurement": "effect of drug on proliferation of clones 05 and 07", "setting": "[4]", "result": "most significantly affected; also recorded: significantly more affected"}]}]}
